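1) Cells in 96-well plates. 2) Compound, 48 h, 5 concentrations. 3) Linear interpolation between surrounding doses. 4) Unreached endpoint = highest concentration. GI50 is the concentration that inhibits growth by half. TGI: concentration producing complete growth inhibition.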
Assays:
Assay in all cases: NCI tumour cell line growth inhibition, 48 h
[1] = tested on: DU-145 prostate
[2] = tested on: U251 CNS
[3] = tested on: OVCAR-8 ovarian
[4] = tested on: M14 melanoma
[5] = tested on: SF-539 CNS
[6] = tested on: OVCAR-5 ovarian
[7] = tested on: NCI/ADR-RES ovarian
[8] = tested on: EKVX NSCLC
[9] = tested on: SNB-75 CNS
[10] = tested on: SR leukemia

Row | SMILES | GI50 [1] [µM] | TGI [1] [µM] | GI50 [2] [µM] | TGI [2] [µM] | GI50 [3] [µM] | TGI [3] [µM] | GI50 [4] [µM] | TGI [4] [µM] | GI50 [5] [µM] | TGI [5] [µM] | GI50 [6] [µM] | TGI [6] [µM] | GI50 [7] [µM] | TGI [7] [µM] | GI50 [8] [µM] | TGI [8] [µM] | GI50 [9] [µM] | TGI [9] [µM] | GI50 [10] [µM] | TGI [10] [µM]
1 | C[C@]12C3CC[C@@]4(CO)C[C@]3(CCC1[C@](C)(C(=O)O)CC[C@@H]2O)CC4=O (stereo not given in full) | > 100 | > 100 | > 100 | > 100 | > 100 | > 100 | > 100 | > 100 | > 100 | > 100 | > 100 | > 100 | > 100 | > 100 | > 100 | > 100 | > 100 | > 100 | > 100 | > 100
2 | O=C(CNc1ncco1)Nc1ccc(S(=O)(=O)c2ccc(NC(=O)CNc3ncco3)cc2)cc1 | 4.79 | 16.4 | 1.17 | 2.48 | 2.4 | 15.7 | 1.7 | 3.55 | 1.7 | 3.9 | 2.03 | 4.13 | 3.02 | 19.6 | 2.23 | 9 | 6.04 | 20.7 | 2.36 | 5.35
3 | COc1cc(NCc2ccccc2O)c2ncccc2c1 | 41.7 | > 100 | 23.7 | > 100 | 25.4 | > 100 | 19 | 53.6 | 21 | > 100 | 80.3 | > 100 | 23.2 | 85.3 | 19 | 80.8 | 8.52 | 59.3 | 5.91 | 58.3
